Patent publication US5308844A, “Substituted 3-piperazinylalkyl-2,3-dihydro-4H-1,3-benzoxazin-4-ones and their use in therapy” (Pierre Fabre Medicament, priority 1991, dated 1994)
Counter-ions that a name gives are not always drawn.

molecular target: T1, 5HT1 A receptors (Rattus norvegicus, UniProt P19327); experiment: 5HT1 A binding (3H-8-OH-DPAT, hippocampus membranes); parameters: species or system Male Charles River rats; details: 3H-8-OH-DPAT ligand 1 nM, 30 min at 25° C.
T1 construct: The hippocampus is ground in a Polytrone; from tissue; host or cells: rat hippocampus membranes (male Charles River rats)
T1 sequence (P19327 1-422): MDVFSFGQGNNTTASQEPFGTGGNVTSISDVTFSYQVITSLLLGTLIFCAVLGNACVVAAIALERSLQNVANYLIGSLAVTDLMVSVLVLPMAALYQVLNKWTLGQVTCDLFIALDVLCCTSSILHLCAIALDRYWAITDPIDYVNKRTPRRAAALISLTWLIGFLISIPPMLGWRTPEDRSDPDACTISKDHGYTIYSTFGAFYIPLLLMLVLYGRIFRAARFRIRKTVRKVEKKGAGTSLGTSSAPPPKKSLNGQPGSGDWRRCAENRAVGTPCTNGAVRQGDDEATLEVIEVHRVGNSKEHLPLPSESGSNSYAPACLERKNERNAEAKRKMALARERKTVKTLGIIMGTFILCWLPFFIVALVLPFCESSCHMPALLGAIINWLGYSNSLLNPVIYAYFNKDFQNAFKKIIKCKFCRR
Experimental: The 5HT1 A binding studies were carried out according to the technique of Peroutka (cf. Peroutka S. J., J. Neurochem. 47, p. 529-40, 1986). Male Charles River rats are stunned and decapitated, and the brain is removed and dissected. The different cerebral areas obtained are used or preserved at […]. The hippocampus is ground in a Polytrone® (20 seconds at 7) in 20 volumes of 50 mM tris HCl buffer pH 7.7 at 25° C.) and centrifuged at 45000 g for 10 min. The pellet is separated, taken up in the same volume of tris buffer and incubated for 10 min at 37° C. and then recentrifuged for 10 min at 45000 g. The pellet is finally taken up in 100 volumes of tris HCl buffer containing 10 μM of pargyline, 4 mM of CaCl2 and 0.1% of ascorbic acid. The mixture obtained is homogenized in a Dounce.
The binding is carried out starting with 0.8 ml of the above membrane suspension to which 0.1 ml of ^3 H-8-OH-DPAT ligand (at a concentration of 1 nM) and either 0.1 ml of tris buffer (control) or the compound of the above invention is added. After incubation for 30 min at 25° C., the mixture is filtered on GF/B (Whatman) and rinsed with 5 ml of cold tris HCl buffer. The residue and the filter are then introduced into a vial containing 3 ml of Instagel liquid scintillant (Packard) and the radioactivity is measured in a Packard counter (Tri-Carbs).
The IC50 are determined graphically for a concentration of ligand of 1 nM.
Table I gives the IC50 for the 5HT1 A receptors for certain derivatives of the invention by way of nonlimiting example.

SMILES	IC50 [nM]
O=C1c2ccccc2OCN1CCCCN1CCN(c2cccc(C(F)(F)F)c2)CC1 [Example 1, Monohydrochloric 3-dihydro-3-[4-(4-(3-trifluoromethylphenyl)piperazinyl)butyl]-4H-1,3-benzoxazin-4-one]	7
COc1ccccc1N1CCN(CCN2COc3ccccc3C2=O)CC1 [Example 5, Dihydrochloride of 2,3-dihydro-3-[2-(4-(2-methoxyphenyl)piperazinyl)ethyl]-4H-1,3-benzoxazin-4-one]	5
COc1ccccc1N1CCN(CCN2COc3ccc(Cl)cc3C2=O)CC1 [Example 14, Hydrochloride of 6-chloro-2.3-dihydro-3-[2-(4-(2-methoxyphenyl)piperazinyl)ethyl]-4H-1,3-benzoxazin-4-one]	5
COc1ccc2c(c1)C(=O)N(CCN1CCN(c3ccccc3OC)CC1)CO2 [Example 15, Hydrochloride of 6-methoxy-2,3-dihydro-3-[2-(4-(2-methoxyphenyl)piperazinyl)ethyl]-4H-1,3-benzoxazin-4-one]	2.2

system: not listed separately; experiment: solubility; format: physicochemical; details: in DMSO

SMILES	soluble in DMSO up to
CC1Oc2ccccc2C(=O)N1CCN1CCN(c2cccc(C(F)(F)F)c2)CC1 (racemic) [Example 19, Hydrate of the (dl) hydrochloride of 2.3-dihydro-2-methyl-3-[2-(4-(3-trifluoromethylphenyl)piperazinyl)ethyl]-4H-1,3-benzoxazin-4-one]	up to 2%
O=C1c2ccccc2OCN1CCCCN1CCN(c2cccc(C(F)(F)F)c2)CC1 [Example 1, Monohydrochloric 3-dihydro-3-[4-(4-(3-trifluoromethylphenyl)piperazinyl)butyl]-4H-1,3-benzoxazin-4-one]	up to 6%
O=C1c2ccccc2OCN1CCN1CCN(c2cccc(Cl)c2)CC1 [Example 9, Hydrochloride of 2.3-dihydro-3-[2-(4-(3-chlorophenyl)piperazinyl)ethyl]-4H-1,3-benzoxazin-4-one]	up to 10%
O=C1c2ccccc2OCN1CCN1CCN(c2cccc(C(F)(F)F)c2)CC1 [Example 10]	up to 7%
COc1ccccc1N1CCN(CCN2COc3ccc(C)cc3C2=O)CC1 [Example 13, Hydrochloride of 2.3-dihydro-6-methyl-3-[2-(4-(2-methoxyphenyl)piperazinyl)ethyl]-4H-1,3-benzoxazin-4-one]	up to 3%
COc1ccccc1N1CCN(CCN2COc3ccc(Cl)cc3C2=O)CC1 [Example 14, Hydrochloride of 6-chloro-2.3-dihydro-3-[2-(4-(2-methoxyphenyl)piperazinyl)ethyl]-4H-1,3-benzoxazin-4-one]	up to 1%
COc1ccc2c(c1)C(=O)N(CCN1CCN(c3ccccc3OC)CC1)CO2 [Example 15, Hydrochloride of 6-methoxy-2,3-dihydro-3-[2-(4-(2-methoxyphenyl)piperazinyl)ethyl]-4H-1,3-benzoxazin-4-one]	up to 1.3%
COc1ccc2c(c1)C(=O)N(CCN1CCN(c3cccc(C(F)(F)F)c3)CC1)CO2 [Example 16, Hydrochloride of 2.6-dihydro-6-methoxy-3-[2-(4-(3-trifluoromethylphenyl)piperazinyl)ethyl]-4H-1,3-benzoxazin-4-one]	up to 7%
COc1ccc(N2CCN(CCCCN3COc4cc(OC)c(OC)cc4C3=O)CC2)cc1OC [Example 18, Hydrochloride of 2.3-dihydro-6,7-dimethoxy-3-[4-(4-(3,4-dimethoxyphenyl)piperazinyl)butyl]-4H-1,3-benzoxazin-4-one]	up to 2%

same assay, conditions: in water

SMILES	soluble in water up to
COc1ccccc1N1CCN(CCN2COc3ccccc3C2=O)CC1 [Example 5 monohydrochloride]	up to 0.9%
COc1ccccc1N1CCN(CCN2COc3ccccc3C2=O)CC1 [Example 5, Dihydrochloride of 2,3-dihydro-3-[2-(4-(2-methoxyphenyl)piperazinyl)ethyl]-4H-1,3-benzoxazin-4-one]	up to 6%

same assay, conditions: water, in water; read-out: soluble in water up to

SMILES	solubility [µg/mL]
O=C1c2ccccc2OCN1CCCN1CCN(c2ccccc2)CC1 [Example 2, Monohydrochloride of 2,3-dihydro-3-[3-(4-phenylpiperazinyl)propyl]-4H-1,3-benzoxazin-4-one]	≤ 10000
O=C1c2ccccc2OCN1CCN1CCN(c2ccccc2)CC1 [Example 3, Dihydrochloride of 2,3-dihydro-3-[2-(4-phenylpiperazinyl)ethyl]-4H-1,3-benzoxazin-4-one]	≤ 10000
O=C1c2ccccc2OCN1CCCCN1CCN(c2ccccc2)CC1 [Example 4, Hydrochloride of 2.3-dihydro-3-[4-(4-phenylpiperazinyl)butyl]-4H-1,3-benzoxazin-4-one]	≤ 5000
COc1ccccc1N1CCN(CCCN2COc3ccccc3C2=O)CC1 [Example 6, Hydrochloride of 2,3-dihydro-3-[3-(4-(2-methoxyphenyl)piperazinyl)propyl]-4H-1,3-benzoxazin-4-one]	≤ 5000
COc1ccccc1N1CCN(CCCCN2COc3ccccc3C2=O)CC1 [Example 7, Monohydrate of the dihydrochloride of 2,3-dihydro-3-[4-(4-(2-methoxyphenyl)piperazinyl)butyl]-4H-1,3-benzoxazin-4-one]	≤ 30000
Cc1ccccc1N1CCN(CCN2COc3ccccc3C2=O)CC1 [Example 8, Monohydrochloride of 2,3-dihydro-3-[2-(4-(2-methylphenyl)piperazinyl)ethyl]-4H-1,3-benzoxazin-4-one]	≤ 3500
O=C1c2ccccc2OCN1CCN1CCN(c2ccccn2)CC1 [Example 11, Hydrochloride of 2,3-dihydro-3-[2-(4-(2-pyridinyl)piperazinyl)ethyl]-4H-1,3-benzoxazin-4-one]	≤ 3000
O=C1c2ccccc2OCN1CCN1CCN(c2ncccn2)CC1 [Example 12, Hydrochloride of 2,3-dihydro-3-[2-(4-(2-pyrimidinyl)piperazinyl)ethyl]-4H-1,3-benzoxazin-4-one]	≤ 12000
COc1cc2c(cc1OC)C(=O)N(CCCCN1CCN(c3ccccc3OC)CC1)CO2 [Example 17, Hydrochloride of 2.3-dihydro-6,7-dimethoxy-3-[4-(4-(2-methoxyphenyl)piperazinyl)butyl]-4H-1,3-benzoxazin-4-one]	≤ 2000
